# Results taken from article PMC12289066, “Identification of glutathione transferase (GST P1) inhibitors via a high-throughput screening assay and implications as alternative treatment options for breast cancers” (PLOS One, 2025).
# Like-named read-outs stand apart in the source and are kept apart here.
# Experiments:
# MDA-MB-231 cells = assay: MTT cytotoxicity assay, MDA-MB-231; format: cell-based, human; details: MTT, 72 h incubation, read-out: IC50 (average ± standard deviation) MDA-MB-231
# Description: (§1) L929, MCF-7, and MDA-MB-231 cell lines were cultured in DMEM GlutaMAX media containing 10% heat-inactivated FBS and 1% (v/v) penicillin-streptomycin at 37°C and CO2 (5%). Cytotoxicity was determined using a 3-(4,5-dimethyl 2-thiazolyl)-2,5-diphenyl-2H-tetrazolium bromide (MTT) assay. 100 μL aliquots and approximately 50’000 cells/well were added to each well of flat-bottomed 96-well plates and incubated for 24 h in a humidified chamber at 37°C under saturated air with a 5% CO2 atmosphere. Stock solutions of 10 mM drug compounds were prepared in DMSO and were sequentially diluted with the cell culture buffer to give a final DMSO concentration of 0.5%. The solutions were added to the 96-well plates in 100 μL aliquots and 100 μL of buffer was added as a control to give a final drug compound concentration range of 0 − 100 μM. The plates were incubated for a further 72 h under the same conditions as before. MTT (10 μL, 5 mg/mL in Dulbecco’s phosphate-buffered saline) was added to each well and the plates were incubated for a further 3 h under the same conditions as before. The culture medium was aspirated from each well and the purple formazan crystals, formed by the mitochondrial dehydrogenase activity of vital cells, were dissolved in 100 μL DMSO. The absorbance of the resulting solutions was measured at 570 and 630 nm using a SpectraMax M5e multimode microplate reader and SoftMax Pro software, version 6.2.2. As the absorbance is directly proportional to the number of surviving cells, the percentage of surviving cells was calculated from the absorbance of wells relative to the control. The reported IC50 values are based on the mean from four independent experiments, each comprising three replicates per concentration.
# L929 cells = assay: MTT cytotoxicity assay, L929; format: cell-based, mouse; details: MTT, 72 h incubation, read-out: IC50 (average ± standard deviation) L929
# Description: as §1, with “Cytotoxicity” for “L929, MCF-7, and MDA-MB-231 cell lines were cultured in DMEM GlutaMAX media containing 10% heat-inactivated FBS and 1% (v/v) penicillin-streptomycin at 37°C and CO2 (5%). Cytotoxicity”, “Stock solutions of 10 mM drug compounds were prepared in DMSO and were sequentially diluted with the cell culture buffer to give a final DMSO concentration of 0.5%. The solutions were added to the 96-well plates in 100 μL aliquots and 100 μL of buffer was added as a control to give a final drug compound concentration range of 0 − 100 μM.” left out
# MCF-7 cells = assay: MTT cytotoxicity assay, MCF-7; format: cell-based, human; details: MTT, 72 h incubation, read-out: IC50 (average ± standard deviation) MCF-7
# Description: as §1
# GST P1-1 [1] = biological target: T1, GST P1-1 (Homo sapiens, UniProt P09211); assay: Determination of IC50 for GST P1-1 enzyme (dose-response / reconfirmation assay); format: biochemical
# T1 construct: purchased Sigma-Aldrich
# Description: (§2) Each drug compound was added to the respective well at a volume of 80 nL of 10 mM stock solution in DMSO, yielding a final compound concentration of 10 μM and a final DMSO concentration of 0.1%. Each plate’s first and last two columns were used as negative (no compound added – 80 nL per well of DMSO) and positive (80 nL of EA added with a final concentration of 50 μM) controls, respectively. The Gyger Certus Flex dispenser was set up using a freshly prepared 1 mM of GSH and 20 nM of GST P1-1, pH 7.4, in one syringe and 8 mM CDNB solution in pure ethanol in the other syringe. Into each well 80 μL of GST-GSH solution was dispensed and incubated at 25°C for 20 minutes before the reaction was initiated by the addition of 4 μL of CDNB solution. The plates were incubated for 2 h in the dark at 25°C and then the absorbance was of each well recorded on a BioTek Synergy NEO HTS multimode plate reader (Agilent®) at a wavelength of 340 nm.
# The IC50 of the GST P1-1 enzyme was determined for the 80 drug compounds with the highest score in the GST P1-1 screening assay. The assay conditions were used for the screening assay and each drug compound was tested at 8 different concentrations (μM) starting at 30 µM final assay concentration with a half-log dilution and 2 replicates per concentration.
# GST P1-1 [2] = biological target: T1, GST P1-1; assay: High-throughput GST P1-1 inhibition assay (384-well screen, CDNB/GSH); format: biochemical; details: compound 10 μM; score 0 = negative control (DMSO), 1 = positive control (EA 50 μM); average of duplicate
# Description: as §2
# The z’factor was calculated for each plate according to Zhang et al.. The Z-factor is a dimensionless, simple statistical characteristic for each HTS assay. This provides a valuable tool for the comparison and assessment of the quality of assays, and can be utilized in assay optimization and validation. For each plate, the concentration of product was normalized by assigning a score of 0 (0%) to the negative control (average of maximal concentration of product measured in the presence of enzyme without any inhibitor) and a score of 1 (100%) was assigned to the positive control (average minimal concentration of product measured in the presence of enzyme with the reference inhibitor, i.e., EA). The experiment was performed in duplicate and the score for each drug compound was calculated as an average ± standard deviation. […] An internal laboratory information management system (LIMS) was used for basic data processing, management, visualization, and statistical hit validation.
# [3] = Table 2, rounded values, read-out: IC50 GSTP1 enzymatic reaction
# [4] = reconfirmation assay, Table S2, read-out: IC50 GSTP1
# T1 sequence (P09211 2-210 limits assumed): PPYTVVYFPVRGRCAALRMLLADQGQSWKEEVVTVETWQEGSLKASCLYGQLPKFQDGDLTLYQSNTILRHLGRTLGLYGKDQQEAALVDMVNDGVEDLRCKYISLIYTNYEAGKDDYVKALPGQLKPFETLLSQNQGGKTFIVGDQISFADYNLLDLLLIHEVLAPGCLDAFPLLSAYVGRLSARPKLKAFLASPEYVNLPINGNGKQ
Compound,"IC50 (MDA-MB-231 cells; Homo sapiens, MDA-MB-231) [µM]","IC50 (L929 cells; Mus musculus, L929) [µM]","IC50 (MCF-7 cells; Homo sapiens, MCF7) [µM]",IC50 (GST P1-1 [1]; [3]) [µM],Hill Slope (dose-response curve) (GST P1-1 [1]; reconfirmation assay),IC50 (GST P1-1 [1]; [4]) [µM],IC50 (MDA-MB-231 cells) [µM],Score (GST P1-1 [2]),IC50 (L929 cells) [µM],IC50 (MCF-7 cells) [µM]
"Cc1cc(=O)n(-c2ccccc2)[nH]1 [5-Methyl-2-phenyl-1,2-dihydropyrazol-3-one]",> 100,> 100,> 100,0.8,0.8,0.83,–,–,–,–
O=C1NC(=O)/C(=C/c2ccc(-c3ccc(F)cc3O)o2)S1 [AS252424],–,–,–,0.6,1.95,0.61,91 ± 3,0.907,24 ± 2,38 ± 2
C[C@@H]1Cc2c([nH]c3ccccc23)[C@@H](c2c(F)cc(/C=C/C(=O)O)cc2F)N1CC(C)(C)F [AZD9496],47 ± 5,36 ± 4,14 ± 1,2.1,2.23,2.05,–,0.806,–,–
CC(C)c1cc(C(C)C)c(CC(=O)NS(=O)(=O)Oc2c(C(C)C)cccc2C(C)C)c(C(C)C)c1 [Avasimibe],16 ± 1,13 ± 1,12 ± 1,0.4,–,0.37,–,0.835,–,–
O=C(O)c1ccc2cc(-c3ccc(O)c(C45CC6CC(CC(C6)C4)C5)c3)ccc2c1 [CD437],–,–,–,0.3,11.6,0.32,0.74 ± 0.07,0.939,0.24 ± 0.03,0.51 ± 0.05
CCCCCCCCCCCC1=C(O)C(=O)C=C(O)C1=O [Embelin],12 ± 1,14 ± 1,11 ± 1,0.6,1.46,0.64,–,0.935,–,–
"C=C(CC)C(=O)c1ccc(OCC(=O)O)c(Cl)c1Cl [Ethacrynic acid, EA, Ethacrynic acid]",14 ± 1,> 100,13 ± 1,–,–,–,–,–,–,–
Cl.O=C(O)Cc1cccc(OCCCN(Cc2cccc(C(F)(F)F)c2Cl)CC(c2ccccc2)c2ccccc2)c1 [GW3965 (hydrochloride)],–,–,–,0.4,2.48,0.43,54 ± 1,1.027,24 ± 2,25 ± 1
Oc1c(Cl)cc(Cl)c(Cl)c1Cc1c(O)c(Cl)cc(Cl)c1Cl [Hexachlorophene],9 ± 1,11 ± 1,14 ± 1,0.4,2.2,0.42,–,1.077,–,–
Cc1cc(O)c2c(=O)c3c(O)cc(O)c4c5c(O)cc(O)c6c(=O)c7c(O)cc(C)c8c1c2c(c34)c(c78)c65 [Hypericin],26 ± 3,19 ± 1,8 ± 1,0.1,11.6,–,–,0.774,–,–
O=C(O)[C@]1(Cc2cccc(Nc3nccs3)n2)CC[C@@H](Oc2cccc(Cl)c2F)CC1 [MK-5108],> 100,2.2 ± 0.5,3.4 ± 0.8,3.2,13.6,–,–,0.933,–,–
CC(C)(C)C(=O)CN1C(=O)[C@H](NC(=O)Nc2cccc(C(=O)O)c2)CN(C2CCCCC2)c2ccccc21 [Nastorazepide],–,–,–,3.3,10.6,–,> 100,0.958,> 100,> 100
O=C(O)c1ccccc1Nc1ccc(CCc2ccc(Cl)c(Cl)c2)cc1 [PD-118057],–,–,–,0.3,1.8,0.33,> 100,0.858,> 100,41 ± 4
O=C(O)c1ccc(S(=O)(=O)N(Cc2ccc(OC(F)(F)F)cc2)c2ncc(C(F)(F)F)cc2Cl)cc1 [RQ-00203078],–,–,–,3.1,1.6,–,51 ± 6,0.697,42 ± 6,17 ± 2
O=C1CC(=O)c2c(Cl)c(Cl)c(Cl)c(Cl)c21 [TCID],–,–,–,0.9,1.16,–,> 100,1.094,> 100,> 100
N#Cc1c(-c2ccccc2)cc(-c2cc(Br)ccc2O)[nH]c1=O [TCS PIM-1 1],–,–,–,2.2,2.5,2.15,> 100,0.813,36 ± 3,74 ± 4
C=CC(=O)c1ccc2ccccc2c1 [ZM 449829],–,–,–,1.4,1.3,–,10.3 ± 0.2,–,8.1 ± 0.4,6.8 ± 0.2
O=C(O)c1cc(N2N=C(C(F)(F)F)/C(=C/c3ccc(-c4ccccc4)o3)C2=O)ccc1Cl [en460],–,–,–,1.1,1.4,–,19 ± 1,0.837,18 ± 2,10 ± 1
O=C(O)c1c(Sc2ccccc2)c2cc(Cl)ccc2n1Cc1ccc(Cl)cc1 [nTZDpa],–,–,–,0.95,1.7,–,95 ± 4,0.909,36 ± 3,39 ± 2
PSB 06126,–,–,–,0.3,3.4,0.29,> 100,0.962,39 ± 4,45 ± 3
